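Exposure lasted 48 hours, with cells grown in 96-well plates and compounds tested at five concentrations. TGI: total growth inhibition.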
Test system: EKVX NSCLC
Assay: NCI anticancer screen, dose series, 48 h

Structure (SMILES)	TGI
O=[N+]([O-])C[C@@]12O[C@]3(O)C4C5CC(C6C5C3C61)C42 (some centres not stated)	> 100 µM
O=C1C2SC34c5c2c2ccccc2n5CCC3CCCN14 (configuration not stated)	> 100 µM
CCCC(=O)NC(NC1CCCCC1)(C(=O)OCC)C(F)(F)F (configuration not stated)	> 100 µM
Cc1c2n(c(=O)[nH]c1=O)C1OC(CO)C(O2)C1O (configuration not stated)	> 100 µM
COc1cccc(C(=O)Oc2ccc(OS(=O)(=O)c3ccc(C)cc3)cc2)c1C#N	> 100 µM
CC1(C)/C(=N\NC(N)=O)C2CCC1C2 (configuration not stated)	> 100 µM
CC1(C)[C@@H](Cn2ccc(=O)[nH]c2=O)CC[C@@]1(C)CO	> 100 µM
CC(C)C1=CC23CCC4C(C)(C(=O)O)CCCC4(C)C2CC1C1C(=O)N(c2ccc(Cc4ccc(N5C(=O)C6C7CC8C9(C)CCCC(C)(C(=O)O)C9CCC8(C=C7C(C)C)C6C5=O)cc4)cc2)C(=O)C13 (configuration not stated)	24.9 µM
Cn1c(=O)c2c(ncn2CCNC(CO)C(O)c2ccc([N+](=O)[O-])cc2)n(C)c1=O (configuration not stated)	> 100 µM
CCCNC(=O)NNC(=O)c1c[nH]c2nc(C)ccc2c1=O	> 100 µM
C=CCCON(C(=O)OC(C)(C)C)C(C)(C)C	> 100 µM
CCOC(=O)Nc1[nH]cc(-c2ccccc2)c1C#N	> 100 µM
NC(N)=NS(=O)(=O)c1ccc(NNc2c3ccccc3nc3c(C(=O)Nc4ccc(S(=O)(=O)Nc5ncccn5)cc4)cccc23)cc1	96.2 µM
O=c1oc2ccccc2cc1-c1cc2ccccn2c1	> 100 µM
COC[C@@H](N=CC(C)(C)C)C(C)C	> 100 µM
NC(N)=NCCN1CC2CCC(CC2)C1	> 100 µM
O=C1COc2cccnc2N1CCCCO	> 100 µM
O=[N+]([O-])c1cccc(C2=NN(c3ccccc3)C[N+](c3ccc(Br)cc3)=N2)c1	> 100 µM
O=C(O)CCCc1nc2c(n1Cc1ccccc1)C(=O)c1ccccc1C2=O	> 100 µM
[N-]=[N+]=Nc1c([N+](=O)[O-])c(=O)n(-c2ccccc2)c2ccccc12	64.5 µM
O=[N+]([O-])c1ccc2[nH]c(=S)[nH]c(=S)c2c1	> 100 µM

Test system: BT-549 breast
Assay: NCI anticancer screen, dose series, 48 h

Structure (SMILES)	TGI
O=[N+]([O-])C[C@@]12O[C@]3(O)C4C5CC(C6C5C3C61)C42 (some centres not stated)	> 100 µM
O=C1C2SC34c5c2c2ccccc2n5CCC3CCCN14 (configuration not stated)	> 100 µM
O=C(/C=C/c1ccccc1)Oc1cccc(O)c1	> 100 µM
CC1(C)/C(=N\NC(N)=O)C2CCC1C2 (configuration not stated)	> 100 µM
Cc1ccc(C2SCC(=O)N2c2ccc(-n3c(-c4ccccc4)nc4ccccc4c3=O)cc2)cc1 (configuration not stated)	54.7 µM
Cn1c(=O)c2c(ncn2CCNC(CO)C(O)c2ccc([N+](=O)[O-])cc2)n(C)c1=O (configuration not stated)	> 100 µM
CCCNC(=O)NNC(=O)c1c[nH]c2nc(C)ccc2c1=O	> 100 µM
C=CCCON(C(=O)OC(C)(C)C)C(C)(C)C	> 100 µM
O=c1oc2ccccc2cc1-c1cc2ccccn2c1	> 100 µM
COC(=O)c1c(O)ccc2c1c1c(n2Cc2cc(OC)cc(OC)c2)C(=O)c2ccccc2C1	> 100 µM
O=C1COc2cccnc2N1CCCCO	> 100 µM
CCOC(=O)NC(Nc1ccc(C)cc1)(C(F)(F)F)C(F)(F)F	> 100 µM

Test system: TK-10 renal
Assay: NCI anticancer screen, dose series, 48 h

Structure (SMILES)	TGI
O=[N+]([O-])C[C@@]12O[C@]3(O)C4C5CC(C6C5C3C61)C42 (some centres not stated)	> 100 µM
O=C1C2SC34c5c2c2ccccc2n5CCC3CCCN14 (configuration not stated)	87 µM
CCCC(=O)NC(NC1CCCCC1)(C(=O)OCC)C(F)(F)F (configuration not stated)	> 100 µM
O=C(/C=C/c1ccccc1)Oc1cccc(O)c1	> 100 µM
Cc1c2n(c(=O)[nH]c1=O)C1OC(CO)C(O2)C1O (configuration not stated)	> 100 µM
COc1cccc(C(=O)Oc2ccc(OS(=O)(=O)c3ccc(C)cc3)cc2)c1C#N	> 100 µM
CC1(C)/C(=N\NC(N)=O)C2CCC1C2 (configuration not stated)	> 100 µM
Cc1ccc(C2SCC(=O)N2c2ccc(-n3c(-c4ccccc4)nc4ccccc4c3=O)cc2)cc1 (configuration not stated)	> 100 µM
CC1(C)[C@@H](Cn2ccc(=O)[nH]c2=O)CC[C@@]1(C)CO	> 100 µM
CC(C)C1=CC23CCC4C(C)(C(=O)O)CCCC4(C)C2CC1C1C(=O)N(c2ccc(Cc4ccc(N5C(=O)C6C7CC8C9(C)CCCC(C)(C(=O)O)C9CCC8(C=C7C(C)C)C6C5=O)cc4)cc2)C(=O)C13 (configuration not stated)	29.7 µM
Cn1c(=O)c2c(ncn2CCNC(CO)C(O)c2ccc([N+](=O)[O-])cc2)n(C)c1=O (configuration not stated)	> 100 µM
CCCNC(=O)NNC(=O)c1c[nH]c2nc(C)ccc2c1=O	> 100 µM
C=CCCON(C(=O)OC(C)(C)C)C(C)(C)C	> 100 µM
CCOC(=O)Nc1[nH]cc(-c2ccccc2)c1C#N	> 100 µM
[N-]=[N+]=NC1(Cc2ccccc2)C(=O)c2cccc3c2N(CCC3)C1=O (configuration not stated)	> 100 µM
O=c1oc2ccccc2cc1-c1cc2ccccn2c1	> 100 µM
COC(=O)c1c(O)ccc2c1c1c(n2Cc2cc(OC)cc(OC)c2)C(=O)c2ccccc2C1	> 100 µM
COC[C@@H](N=CC(C)(C)C)C(C)C	> 100 µM
NC(N)=NCCN1CC2CCC(CC2)C1	> 100 µM
O=C1COc2cccnc2N1CCCCO	> 100 µM
O=[N+]([O-])c1cccc(C2=NN(c3ccccc3)C[N+](c3ccc(Br)cc3)=N2)c1	> 100 µM
O=C(O)CCCc1nc2c(n1Cc1ccccc1)C(=O)c1ccccc1C2=O	> 100 µM
CCOC(=O)NC(Nc1ccc(C)cc1)(C(F)(F)F)C(F)(F)F	> 100 µM
[N-]=[N+]=Nc1c([N+](=O)[O-])c(=O)n(-c2ccccc2)c2ccccc12	44.2 µM

— PubChem BioAssay (NCI)
